How the values were obtained:
[1] = system: neuraminidase (NA) of B/Yamagata-lineage viruses; type: biochemical, influenza B/Yamagata-lineage virus; conditions: for IC50 fold-change compared to reference median IC50 values: B/Yamagata-lineage, no NA amino acid substitution (None), n=3, range
[2] = system: neuraminidase (NA) of B/Victoria-lineage viruses; type: biochemical, influenza B/Victoria-lineage virus; conditions: B/Victoria-lineage, no NA amino acid substitution (None); n=3; range
[3] = system: neuraminidase (NA) of B/Yamagata-lineage viruses; parameters: method as in Oakley et al., 2010; conditions: B/Yamagata-lineage virus, observed before, ref Oakley et al., 2010; cited from earlier work

SMILES	Included in phenotypic analysis: inhibition category (HRI/RI/NI) [1]	IC50 fold-change compared to reference median IC50 values [1]	IC50 fold-change compared to reference median IC50 values [2]	inhibition category conferred by NA D197N [3]
[H]/N=C(\N)N[C@H]1C=C(C(=O)O)O[C@@H]([C@H](OC)[C@H](O)CO)[C@@H]1NC(C)=O [Laninamivir, laninamivir]	Yes (RI to zanamivir, oseltamivir, peramivir and laninamivir) (key: NI < 5-fold; RI 5 to 50-fold; HRI > 50-fold)	0.6–5.1 fold	0.7–4.7 fold	
CCOC(=O)C1=C[C@@H](OC(CC)CC)[C@H](NC(C)=O)[C@@H](N)C1 [Oseltamivir, oseltamivir]		1.7–10 fold	0.6–4.1 fold	
CCC(CC)[C@H](NC(C)=O)[C@@H]1[C@H](O)[C@@H](C(=O)O)C[C@H]1N=C(N)N [Peramivir, peramivir]		2.0–7.8 fold	0.9–6.5 fold	RI (RI 5 to 50-fold)
CC(=O)N[C@H]1[C@H]([C@H](O)[C@H](O)CO)OC(C(=O)O)=C[C@@H]1N=C(N)N [Zanamivir, zanamivir]	Yes (RI to zanamivir, oseltamivir, peramivir and laninamivir) (key: NI < 5-fold; RI 5 to 50-fold; HRI > 50-fold)	0.9–5.3 fold	0.7–8.7 fold	RI (RI 5 to 50-fold)

Reference: PMC9036627, “Global update on the susceptibility of human influenza viruses to neuraminidase inhibitors, 2013–2014” (Antiviral research, 2015)
